Results on 2 compounds are retold here after publication PMC12624831, “Expanding Peptide Chemical Space via Acid-Mediated Arginine Modification” (Organic Letters, 2025).

*1 amine or outer side, *2 acyl side, *3 side chain or, on linkers, in order; H or OH if unused. Where a SMILES comes first, the peptide text is derived from it. [ ]: non-standard residue; d: D form. The star is where a group is joined. NH(CH2CH2O)2(CH2)6Cl = ClCCCCCCOCCOCCN*; Suc = O=C(CCC(=O)[*:2])[*:1]; 2Pyrimidinyl = c1cnc(*)nc1; Orn = NCCC[C@H](N)C(=O)O

This series has as its system HEK cells stably expressing a HaloTag-GFP-mitochondrial localized construct. The series can be described thus: Chloroalkane penetration/permeability assay (CAPA). Format: in vitro ADME. The settings on record: modified peptide versus its unmodified control (ct-1l, ct-1m). The protocol:
at room temperature. Peptides were synthesized using standard protocols. Peptides were cleaved from the resin using a cocktail of 95:5, trifluoroacetic acid:water for 2 h. The resin was removed by filtration, and the resulting solution was concentrated via air flow. The residue was washed with cold ether (3 x 10 mL), precipitating a white solid. Ether was removed via vacuum overnight. The white solid was diluted with ACN/H2O mixture. The resulting solution was purified by HPLC.
VI. BD FACSymphony™ Flow Cytometer. Flow cytometry analysis was performed on a BD FACSymphony™ system equipped with decagon (2-10 PMTs) or cascade (2-20 PMTs) detector arrays. […] Signal detection combines PMTs (side scatter/fluorescence) and photodiodes (forward scatter), with longpass dichroic and bandpass filters for wavelength selection. […] The absorbance of the molecule is 533 nm and emission is […]
VII. […] After recovery from selection and reaching near-confluency, the cells were deemed ready for CAPA experiments. […]
Experimental Protocol Design Control Implementation. […] No-molecule control wells receive only dilution buffer during the pulse step, thereby establishing the maximum red fluorescence baseline. […]

As for `CC[C@H](C)[C@H](NC(=O)[C@H](CO)NC(=O)[C@@H](NC(=O)[C@@H]1CCCN1C(=O)[C@H](CCCNc1ncccn1)NC(=O)[C@H](Cc1c[nH]c2ccccc12)NC(=O)CCC(=O)NCCOCCOCCCCCCCl)C(C)C)C(N)=O` [ct-2l] ({NH(CH2CH2O)2(CH2)6Cl-Suc}-W[Orn](2Pyrimidinyl)PVSI-NH2), the “increase in membrane permeability following conversion of arginine into the amino pyrimidine derivative” value came to 2 fold. To `CC(C)[C@H](NC(=O)CCC(=O)NCCOCCOCCCCCCCl)C(=O)NCC(=O)N[C@@H](CCCNc1ncccn1)C(=O)N[C@@H](C)C(=O)N[C@@H](Cc1c[nH]c2ccccc12)C(=O)N[C@@H](CC(N)=O)C(=O)N[C@@H](Cc1ccc(O)cc1)C(=O)N[C@@H](C)C(N)=O` [ct-2m] ({NH(CH2CH2O)2(CH2)6Cl-Suc}-VG[Orn](2Pyrimidinyl)AWNYA-NH2) belongs 2 fold.
